Data set [1] has as its system humans. The note with it: cited from earlier work; for Outcome of inadvertent intravenous infusion: person.
A short description of data set [2]: Study of 52 patients receiving parenteral nutrition: zinc level in serum and whole blood. Type of data set: in vivo, humans.
Procedure: In a study of 52 patients receiving parenteral nutrition, whereby the patients had haemorrhages, polytrauma/trauma and tumours, in the Vogtland-Klinikum Plauen GmbH, the trace element status of the patients was determined throughout the course of the therapy on the basis of routine medication and routine supplementation.
The goal was to establish whether the routinely administered trace element substitution led to a satisfactory supply of trace elements. For this purpose, the serum and whole blood levels of the trace elements chromium, iron, fluorine, iodine, copper, manganese, molybdenum, selenium and zinc were determined daily, for a minimum of 3 and a maximum of 18 days.
Throughout the above-mentioned observation period, the patients received the normal routine supplementation with the preparations Inzolen HK, Inzolen® sine NaCL, Selenase® and Unizink®, at various times and in various dosages. The trace elements cobalt, copper, manganese, selenium and zinc were administered by means of these preparations, in addition to the macro elements chloride, magnesium, potassium and sodium.
Corresponding to the previous routine, the Inzolen® administrations were made dependent on the daily determined serum potassium level, with the normal range being targeted. Zinc and selenium administration took place on the basis of experience in certain illness situations. The above-mentioned determination of the further macro element and trace element levels was only intended for retrospective observation of the trace element status, and was not included in the daily decision process for any supplementation.
The following reference ranges were the basis for the evaluation:
The second step was to establish what percent of the patients' trace element levels were below, within and above the reference range throughout the entire observation period (3-18 days).
Moreover, the behaviour curves of the trace element levels in the serum and whole blood of each patient were evaluated, whereby performance of further treatments/therapies (Op, CT, accompanying medication, etc.) was taken into consideration.
The conditions of data set [3]: cited from earlier work.
For data set [4] the following is noted: cited from earlier work. The source holds these as a separate data set.
Data set [5] deals with humans. As to conditions: two children, 10-15 ml weapon-cleaning agent with approx. 1.8% selenous acid, roughly 110 mg selenium; cited from earlier work.
Setting [6] is: 20 healthy young men, 160 mg zinc/d for 5 weeks.
Where [7] appears, read: Ø, entire observation period (3-18 days).

Data on six molecules can be found in patent US9277761B2, “Nutrition trace element composition” (priority 2003, dated 2016).

Read-outs that look alike come from different tables or passages of the source.

Take `[Zn]` [Zinc]: the “Effect of repeated administration” value with humans [1] (150 mg of zinc a day over 2 years) is reported as “copper deficiency”. Besides, the “Outcome of inadvertent intravenous infusion” value in the data set on humans [1] (1.5 g zinc over 60 hours) is “ended fatally”. The HDL cholesterol level entry with humans [1] (setting [6]) is “significantly reduced”. For the same molecule, the “Total cholesterol, triglycerides and LDL cholesterol” value with humans [1] (setting [6]) is given as “normal levels”. Further, the “Effect on the blood lipid levels” value in the data set with humans [1] (healthy young women, 100 mg daily for 8 weeks) is “no effect”. In addition, in the data set with humans [1] (toxic range not starting until quantities in the grams), the Toxicity result was “low toxicity”. The “Zinc in serum, patients Above reference range” value was determined as 4% in data set [2] (Day 1); 2% in data set [2] (Day 2); 0% in data set [2] (Day 3); 0% in data set [2] (Day 4); 3% in data set [2] (Day 5); 4% in data set [2] (Day 6). Moreover, the “Zinc in serum, patients Above reference range” value in data set [2] (Day 7) stood at 0%; in data set [2] (Day 8) it was 0%; in data set [2] (Day 9) it was 4%; in data set [2] (Day 10) it was 5%; in data set [2] (Day 11), 16%; in data set [2] (Day 12), 7%. For the same molecule, the “Zinc in serum, patients Above reference range” value in data set [2] (Day 13) is on record as 14%; in data set [2] (Day 14), 0%; in data set [2] (Day 15) it was 0%; in data set [2] (Day 16), 0%; in data set [2] (Day 17) it was 10%; in data set [2] (Day 18), 10%. The “Zinc in serum, patients Above reference range” value in data set [2] (setting [7]) is 14%. For the same molecule, the “Zinc in serum, patients Below reference range” value is 76% in data set [2] (Day 1); 85% in data set [2] (Day 2); 78% in data set [2] (Day 3); 86% in data set [2] (Day 4); 80% in data set [2] (Day 5); 68% in data set [2] (Day 6). Further, the “Zinc in serum, patients Below reference range” value in data set [2] (Day 7) was found to be 63%; in data set [2] (Day 8), 50%; in data set [2] (Day 9), 43%; in data set [2] (Day 10), 33%; in data set [2] (Day 11), 16%; in data set [2] (Day 12) it was 20%. Besides, the “Zinc in serum, patients Below reference range” value stood at 7% in data set [2] (Day 13); 8% in data set [2] (Day 14); 8% in data set [2] (Day 15); 9% in data set [2] (Day 16); 10% in data set [2] (Day 17); 10% in data set [2] (Day 18). For the same molecule, the “Zinc in serum, patients Below reference range” value in data set [2] (setting [7]) came to 38%. In addition, the “Zinc in serum, patients Within reference range” value came out at 20% in data set [2] (Day 1); 13% in data set [2] (Day 2); 22% in data set [2] (Day 3); 14% in data set [2] (Day 4); 17% in data set [2] (Day 5); 29% in data set [2] (Day 6). The “Zinc in serum, patients Within reference range” value in data set [2] (Day 7) was determined as 38%; in data set [2] (Day 8), 50%; in data set [2] (Day 9), 52%; in data set [2] (Day 10), 62%; in data set [2] (Day 11), 68%; in data set [2] (Day 12) it was 73%. In addition, the “Zinc in serum, patients Within reference range” value in data set [2] (Day 13) was 79%; in data set [2] (Day 14), 92%; in data set [2] (Day 15) it was 92%; in data set [2] (Day 16) it was 91%; in data set [2] (Day 17), 80%; in data set [2] (Day 18), 80%. For the same molecule, in data set [2] (setting [7]), the “Zinc in serum, patients Within reference range” value stood at 49%. For the same molecule, the “Zinc in whole blood, patients Above reference range” value in data set [2] (Day 1) is 10%; in data set [2] (Day 2), 8%; in data set [2] (Day 3) it was 8%; in data set [2] (Day 4) it was 5%; in data set [2] (Day 5), 6%; in data set [2] (Day 6), 4%. Moreover, the “Zinc in whole blood, patients Above reference range” value in data set [2] (Day 7) was found to be 8%; in data set [2] (Day 8), 8%; in data set [2] (Day 9) it was 9%; in data set [2] (Day 10), 5%; in data set [2] (Day 11), 11%; in data set [2] (Day 12), 7%. For the same molecule, the “Zinc in whole blood, patients Above reference range” value in data set [2] (Day 13) came to 7%; in data set [2] (Day 14), 0%; in data set [2] (Day 15) it was 8%; in data set [2] (Day 16) it was 9%; in data set [2] (Day 17), 10%; in data set [2] (Day 18), 20%. Further, the “Zinc in whole blood, patients Above reference range” value in data set [2] (setting [7]) was found to be 7%. The “Zinc in whole blood, patients Below reference range” value in data set [2] (Day 1) was determined as 6%; in data set [2] (Day 2), 18%; in data set [2] (Day 3), 12%; in data set [2] (Day 4) it was 14%; in data set [2] (Day 5) it was 17%; in data set [2] (Day 6) it was 7%. Also, the “Zinc in whole blood, patients Below reference range” value in data set [2] (Day 7) is 8%; in data set [2] (Day 8) it was 4%; in data set [2] (Day 9), 0%; in data set [2] (Day 10), 0%; in data set [2] (Day 11) it was 0%; in data set [2] (Day 12) it was 7%. In addition, the “Zinc in whole blood, patients Below reference range” value in data set [2] (Day 13) is on record as 7%; in data set [2] (Day 14), 0%; in data set [2] (Day 15), 0%; in data set [2] (Day 16) it was 0%; in data set [2] (Day 17) it was 0%; in data set [2] (Day 18), 0%. Moreover, the “Zinc in whole blood, patients Below reference range” value in data set [2] (setting [7]) was 5%. For the same molecule, the “Zinc in whole blood, patients Within reference range” value in data set [2] (Day 1) worked out at 84%; in data set [2] (Day 2), 75%; in data set [2] (Day 3), 80%; in data set [2] (Day 4), 81%; in data set [2] (Day 5), 77%; in data set [2] (Day 6), 89%. Besides, the “Zinc in whole blood, patients Within reference range” value in data set [2] (Day 7) came out at 83%; in data set [2] (Day 8), 88%; in data set [2] (Day 9), 91%; in data set [2] (Day 10), 95%; in data set [2] (Day 11) it was 89%; in data set [2] (Day 12), 87%. The “Zinc in whole blood, patients Within reference range” value in data set [2] (Day 13) worked out at 86%; in data set [2] (Day 14), 100%; in data set [2] (Day 15), 92%; in data set [2] (Day 16), 91%; in data set [2] (Day 17) it was 90%; in data set [2] (Day 18), 80%. Further, the “Zinc in whole blood, patients Within reference range” value in data set [2] (setting [7]) is on record as 88%. Moreover, the “Zinc level in the serum” value in data set [2] (patients with normal whole blood zinc receiving zinc, even high administration) is recorded as “scarcely influenced”. In data set [3] (humans), the “Concentration in the cerebral spinal fluid relative to plasma concentration” value is “a tenth”. Besides, the “Portion excreted through the faeces” value in data set [3] (in vivo) is recorded as 90%. Moreover, the “Portion resorbed from the nourishment” value in data set [3] (physiological conditions, roughly) was 20-30%.

As for `O=S(=O)([O-])[O-].[Zn+2]` [ZnSO4], the “Dose considered deadly for adults” value in the data set with humans [1] (adults) is 5 g. Further, the “Dose resulting in vomiting” value in the data set with humans [1] (in vivo) is 1 to 2 g. The “Outcome of inadvertent intravenous infusion” value in the data set on humans [1] (total 7.4 g zinc within 60 hours) is “death”.

For the molecule `O=[74Se]([O-])[O-].[Na+].[Na+]` [[^74Se] sodium selenite], the Dose excreted in data set [4] (intravenous 82 μg of selenium, first 24 hours) is 18%. Further, the “Absorbed dose excreted through the urine” value in data set [4] (peroral administration, first 24 hours) is 12%.

Turning to `O=[75Se]([O-])[O-].[Na+].[Na+]` [[^75Se] sodium selenite], the Dose excreted in data set [4] (intravenous, first 24 hours) is reported as 12%. Moreover, in data set [4] (intravenous), the “Additional portion of dose eliminated in second phase” value is listed as 40%, the “Biological half-life of second phase” value is 20 days and the “Half-life of the third phase” value was 115 days. In data set [4] (oral 10 μg, first two weeks), the “Absorbed dose excreted through the urine” value is listed as 14-20%. For the same molecule, in data set [4] (oral 10 μg), the “Half-life of total body retention, 1st phase” value is 0.7 to 1.2 days; the “Half-life of total body retention, 2nd phase” value is 7 to 11 days; the “Half-life of total body retention, 3rd phase” value is 96 to 144 days.

Turning to `[Zn]` [elementary zinc], the Symptoms after ingestion entry in the data set on humans [1] (12 g/d for 2 days, child) was “recklessness, lethargy and dysgraphia”.

Take `O=[Se](O)O` [selenous acid]: in the data set on humans [5], the “Outcome of acute selenium poisoning” value was “died”.
